Test: In situ brain/choroid plexus perfusion (10 or 30 minutes) with capillary depletion
Settings: 30 min perfusion, not corrected for vascular space

[^3H(G)]pentamidine
RTISSUE/PLASMA% (mean ± SEM) of [^3H]pentamidine (Cerebellum, 0.1% F68 + 15.7 nM pent): 14.44 (± 2.47) % | RTISSUE/PLASMA% (mean ± SEM) of [^3H]pentamidine (Cerebellum, 0.5% F68 + 15.7 nM pent): 17.28 (± 3.54) % | RTISSUE/PLASMA% (mean ± SEM) of [^3H]pentamidine (Cerebellum, Control (15.7 nM pent)): 12.92 (± 1.10) % | RTISSUE/PLASMA% (mean ± SEM) of [^3H]pentamidine (Choroid plexus, 0.01% F68 + 15.7 nM pent): 835.26 (± 260.20) % | RTISSUE/PLASMA% (mean ± SEM) of [^3H]pentamidine (Choroid plexus, 0.1% F68 + 15.7 nM pent): 944.85 (± 235.90) % | RTISSUE/PLASMA% (mean ± SEM) of [^3H]pentamidine (Choroid plexus, 0.5% F68 + 15.7 nM pent): 1844.80 (± 493.51) % | RTISSUE/PLASMA% (mean ± SEM) of [^3H]pentamidine (Choroid plexus, Control (15.7 nM pent)): 1241.60 (± 92.86) % | RTISSUE/PLASMA% (mean ± SEM) of [^3H]pentamidine (Corpus callosum, 0.01% F68 + 15.7 nM pent): 2.02 (± 1.22) % | RTISSUE/PLASMA% (mean ± SEM) of [^3H]pentamidine (Corpus callosum, 0.1% F68 + 15.7 nM pent): 9.47 (± 0.94) % | RTISSUE/PLASMA% (mean ± SEM) of [^3H]pentamidine (Corpus callosum, 0.5% F68 + 15.7 nM pent): 15.72 (± 6.78) % | RTISSUE/PLASMA% (mean ± SEM) of [^3H]pentamidine (Corpus callosum, Control (15.7 nM pent)): 8.19 (± 1.97) % | RTISSUE/PLASMA% (mean ± SEM) of [^3H]pentamidine (Frontal cortex, 0.01% F68 + 15.7 nM pent): 9.00 (± 1.47) % | RTISSUE/PLASMA% (mean ± SEM) of [^3H]pentamidine (Frontal cortex, 0.1% F68 + 15.7 nM pent): 11.91 (± 1.35) % | RTISSUE/PLASMA% (mean ± SEM) of [^3H]pentamidine (Frontal cortex, 0.5% F68 + 15.7 nM pent): 17.54 (± 3.58) % | RTISSUE/PLASMA% (mean ± SEM) of [^3H]pentamidine (Frontal cortex, Control (15.7 nM pent)): 10.35 (± 0.84) % | RTISSUE/PLASMA% (mean ± SEM) of [^3H]pentamidine (Hippocampus, 0.01% F68 + 15.7 nM pent): 6.05 (± 1.20) % | RTISSUE/PLASMA% (mean ± SEM) of [^3H]pentamidine (Hippocampus, 0.1% F68 + 15.7 nM pent): 7.93 (± 1.20) % | RTISSUE/PLASMA% (mean ± SEM) of [^3H]pentamidine (Hippocampus, 0.5% F68 + 15.7 nM pent): 10.65 (± 2.55) % | RTISSUE/PLASMA% (mean ± SEM) of [^3H]pentamidine (Hippocampus, Control (15.7 nM pent)): 8.19 (± 0.30) % | RTISSUE/PLASMA% (mean ± SEM) of [^3H]pentamidine (Homogenate (capillary depletion), 0.01% F68 + 15.7 nM pent): 9.63 (± 0.93) % | RTISSUE/PLASMA% (mean ± SEM) of [^3H]pentamidine (Homogenate (capillary depletion), 0.1% F68 + 15.7 nM pent): 11.19 (± 1.62) % | RTISSUE/PLASMA% (mean ± SEM) of [^3H]pentamidine (Homogenate (capillary depletion), 0.5% F68 + 15.7 nM pent): 14.45 (± 3.93) % | RTISSUE/PLASMA% (mean ± SEM) of [^3H]pentamidine (Homogenate (capillary depletion), Control (15.7 nM pent)): 10.18 (± 0.92) % | RTISSUE/PLASMA% (mean ± SEM) of [^3H]pentamidine (Hypothalamus, 0.01% F68 + 15.7 nM pent): 8.90 (± 1.42) % | RTISSUE/PLASMA% (mean ± SEM) of [^3H]pentamidine (Hypothalamus, 0.1% F68 + 15.7 nM pent): 11.17 (± 1.42) % | RTISSUE/PLASMA% (mean ± SEM) of [^3H]pentamidine (Hypothalamus, 0.5% F68 + 15.7 nM pent): 18.73 (± 4.67) % | RTISSUE/PLASMA% (mean ± SEM) of [^3H]pentamidine (Hypothalamus, Control (15.7 nM pent)): 18.49 (± 4.17) % | RTISSUE/PLASMA% (mean ± SEM) of [^3H]pentamidine (Occipital cortex, 0.01% F68 + 15.7 nM pent): 8.80 (± 1.47) % | RTISSUE/PLASMA% (mean ± SEM) of [^3H]pentamidine (Occipital cortex, 0.1% F68 + 15.7 nM pent): 12.14 (± 1.62) % | RTISSUE/PLASMA% (mean ± SEM) of [^3H]pentamidine (Occipital cortex, 0.5% F68 + 15.7 nM pent): 15.85 (± 2.71) % | RTISSUE/PLASMA% (mean ± SEM) of [^3H]pentamidine (Occipital cortex, Control (15.7 nM pent)): 9.52 (± 1.08) % | RTISSUE/PLASMA% (mean ± SEM) of [^3H]pentamidine (Pellet (capillary depletion), 0.01% F68 + 15.7 nM pent): 18.16 (± 2.79) % | RTISSUE/PLASMA% (mean ± SEM) of [^3H]pentamidine (Pellet (capillary depletion), 0.1% F68 + 15.7 nM pent): 22.15 (± 4.44) % | RTISSUE/PLASMA% (mean ± SEM) of [^3H]pentamidine (Pellet (capillary depletion), Control (15.7 nM pent)): 16.45 (± 2.76) % | RTISSUE/PLASMA% (mean ± SEM) of [^3H]pentamidine (Pineal gland, 0.01% F68 + 15.7 nM pent): 341.30 (± 39.57) % | RTISSUE/PLASMA% (mean ± SEM) of [^3H]pentamidine (Pineal gland, 0.1% F68 + 15.7 nM pent): 342.95 (± 92.02) % | RTISSUE/PLASMA% (mean ± SEM) of [^3H]pentamidine (Pineal gland, 0.5% F68 + 15.7 nM pent): 525.94 (± 122.85) % | RTISSUE/PLASMA% (mean ± SEM) of [^3H]pentamidine (Pineal gland, Control (15.7 nM pent)): 664.25 (± 82.42) % | RTISSUE/PLASMA% (mean ± SEM) of [^3H]pentamidine (Pituitary gland, 0.01% F68 + 15.7 nM pent): 324.42 (± 44.06) % | RTISSUE/PLASMA% (mean ± SEM) of [^3H]pentamidine (Pituitary gland, 0.1% F68 + 15.7 nM pent): 434.10 (± 59.56) % | RTISSUE/PLASMA% (mean ± SEM) of [^3H]pentamidine (Pituitary gland, 0.5% F68 + 15.7 nM pent): 881.90 (± 170.25) % | RTISSUE/PLASMA% (mean ± SEM) of [^3H]pentamidine (Pituitary gland, Control (15.7 nM pent)): 394.51 (± 52.42) % | RTISSUE/PLASMA% (mean ± SEM) of [^3H]pentamidine (Pons, 0.01% F68 + 15.7 nM pent): 17.61 (± 3.70) % | RTISSUE/PLASMA% (mean ± SEM) of [^3H]pentamidine (Pons, 0.1% F68 + 15.7 nM pent): 20.36 (± 3.70) % | RTISSUE/PLASMA% (mean ± SEM) of [^3H]pentamidine (Pons, 0.5% F68 + 15.7 nM pent): 20.43 (± 5.67) % | RTISSUE/PLASMA% (mean ± SEM) of [^3H]pentamidine (Pons, Control (15.7 nM pent)): 15.16 (± 1.48) % | RTISSUE/PLASMA% (mean ± SEM) of [^3H]pentamidine (Supernatant (capillary depletion), 0.01% F68 + 15.7 nM pent): 3.77 (± 0.94) % | RTISSUE/PLASMA% (mean ± SEM) of [^3H]pentamidine (Supernatant (capillary depletion), 0.1% F68 + 15.7 nM pent): 6.63 (± 0.52) % | RTISSUE/PLASMA% (mean ± SEM) of [^3H]pentamidine (Supernatant (capillary depletion), 0.5% F68 + 15.7 nM pent): 6.45 (± 1.35) % | RTISSUE/PLASMA% (mean ± SEM) of [^3H]pentamidine (Supernatant (capillary depletion), Control (15.7 nM pent)): 5.54 (± 0.37) % | RTISSUE/PLASMA% (mean ± SEM) of [^3H]pentamidine (Thalamus, 0.01% F68 + 15.7 nM pent): 7.99 (± 1.06) % | RTISSUE/PLASMA% (mean ± SEM) of [^3H]pentamidine (Thalamus, 0.1% F68 + 15.7 nM pent): 11.08 (± 1.06) % | RTISSUE/PLASMA% (mean ± SEM) of [^3H]pentamidine (Thalamus, 0.5% F68 + 15.7 nM pent): 13.52 (± 3.10) % | RTISSUE/PLASMA% (mean ± SEM) of [^3H]pentamidine (Thalamus, Control (15.7 nM pent)): 9.94 (± 1.95) %

Source: article PMC8078842 (PLoS Neglected Tropical Diseases, 2021)
